Series [1] can be described thus: Half life in human liver microsomes after 10 to 60 mins in presence of NADPH by LC/MS/MS analysis. In kind it is ADME, microsome.
The subject of series [2] is Staphylococcus aureus. In words: Antibacterial activity against methicillin/ciprofloxacin/clindamycin-resistant Staphylococcus aureus USA100 NRS382 clinical isolate after 18 to 20 hrs by broth microdilution method. In kind it is functional.
Series [3] can be described thus: Half life in human liver microsomes after 10 to 60 mins in absence of NADPH by LC/MS/MS analysis. In kind it is ADME, microsome.
Series [4] deals with Staphylococcus aureus. As to the kind of experiment: Antibacterial activity against methicillin-resistant Staphylococcus aureus 2658 RCMB after 18 to 20 hrs by broth microdilution method. In kind it is functional.
For series [5], the system named is Staphylococcus aureus. As to the kind of experiment: Bactericidal activity against methicillin/ciprofloxacin/clindamycin-resistant Staphylococcus aureus USA100 NRS382 clinical isolate after 24 hrs. In kind it is functional. The following applies: for MBC: USA100 NRS382, 24 h.
A short description of series [6]: Intrinsic clearance in human liver microsomes after 10 to 60 mins in absence of NADPH by LC/MS/MS analysis. In kind it is ADME, microsome. The settings on record: read-out: CLH.
A short description of series [7]: Intrinsic clearance in human liver microsomes after 10 to 60 mins in presence of NADPH by LC/MS/MS analysis. The following applies: read-out: CLH. In kind it is ADME, microsome.
Series [8] relates to Staphylococcus aureus. As to the kind of experiment: Antibacterial activity against methicillin/ciprofloxacin/gentamicin/clindamycin-resistant Staphylococcus aureus USA200 NRS383 clinical isolate after 18 to 20 hrs by broth microdilution method. In kind it is functional.
In series [9] the test system is Staphylococcus aureus. As to the kind of experiment: Bactericidal activity against methicillin/ciprofloxacin/gentamicin/clindamycin-resistant Staphylococcus aureus USA200 NRS383 clinical isolate after 24 hrs. In kind it is functional. The settings on record: for MBC: USA200 NRS383, 24 h.
The test system of series [10] is Staphylococcus aureus. As to the kind of experiment: Antibacterial activity against methicillin-resistant Staphylococcus aureus USA400 NRS123 clinical isolate after 18 to 20 hrs by broth microdilution method. In kind it is functional.
For series [11], the system named is Staphylococcus aureus. In words: Antibacterial activity against methicillin/erythromycin/tetracycline-resistant Staphylococcus aureus USA300 NRS384 clinical isolate after 18 to 20 hrs by broth microdilution method. In kind it is functional.
The subject of series [12] is Staphylococcus aureus. As to the kind of experiment: Bactericidal activity against mupirocin/rifampicin-resistant Staphylococcus aureus RN4220 NRS107 clinical isolate after 24 hrs. In kind it is functional. The settings on record: RN4220 NRS107, 24 h.
In series [13] the test system is Staphylococcus aureus. As to the kind of experiment: Bactericidal activity against vancomycin-resistant Staphylococcus aureus VRSA10 clinical isolate after 24 hrs. In kind it is functional. The settings on record: VRSA10, 24 h.
Series [14] has as its system Staphylococcus aureus. In words: Antibacterial activity against vancomycin-resistant Staphylococcus aureus VRSA4 clinical isolate after 18 to 20 hrs by broth microdilution method. In kind it is functional.
For series [15], the system named is Staphylococcus aureus. As to the kind of experiment: Bactericidal activity against vancomycin-resistant Staphylococcus aureus VRSA4 clinical isolate after 24 hrs. In kind it is functional. The settings on record: VRSA4, 24 h.
The subject of series [16] is Staphylococcus aureus. As to the kind of experiment: Antibacterial activity against vancomycin-resistant Staphylococcus aureus VRSA10 clinical isolate after 18 to 20 hrs by broth microdilution method. In kind it is functional.
Series [17] concerns Staphylococcus aureus. In words: Antibacterial activity against mupirocin/rifampicin-resistant Staphylococcus aureus RN4220 NRS107 clinical isolate after 18 to 20 hrs by broth microdilution method. In kind it is functional.
The subject of series [18] is Staphylococcus aureus. As to the kind of experiment: Bactericidal activity against methicillin/erythromycin/tetracycline-resistant Staphylococcus aureus USA300 NRS384 clinical isolate after 24 hrs. The following applies: for MBC: USA300 NRS384, 24 h. In kind it is functional.
In series [19] the test system is Staphylococcus aureus. As to the kind of experiment: Bactericidal activity against methicillin-resistant Staphylococcus aureus USA400 NRS123 clinical isolate after 24 hrs. In kind it is functional. The settings on record: for MBC: USA400 NRS123, 24 h.
In another series the test system is HaCaT. In words: Cytotoxicity against human HaCaT cells assessed as decrease in cell viability up to 16 ug/ml after 2 hrs by MTS assay. In kind it is cell-based.
In series [20] the test system is Staphylococcus aureus. In words: Bactericidal activity against methicillin-resistant Staphylococcus aureus USA400 NRS123 clinical isolate assessed as reduction of bacterial load at 4 times MIC after 24 hrs by time kill assay. In kind it is functional.
The subject of series [21] is Staphylococcus aureus. In words: Antibacterial activity against methicillin-resistant Staphylococcus aureus USA400 NRS123 clinical isolate infected in mouse J774 cells assessed as reduction of bacterial load at 16 ug/ml after 24 hrs relative to control. In kind it is functional.

Each structure is given as a SMILES string. Values after ≈ are worked out from the molar mass of the structure shown. Active and inactive are the calls of the source. The calls are words filed in the database; no cut-off is given here.

Turning to `CCCCOc1ccc(-c2nc(C)c(/C(C)=N/NC(=N)N)s2)cc1`, the half-life in series [1] and in series [3] was over 4 h throughout. The MIC with Staphylococcus aureus [2] worked out at 32 µg/mL (≈ 92.6 µM); against Staphylococcus aureus [4], 15.6 µg/mL (≈ 45.2 µM); in the series on Staphylococcus aureus [8], 32 µg/mL (≈ 92.6 µM). Also, the MBC is over 128 µg/mL against Staphylococcus aureus [5] and over 64 µg/mL against Staphylococcus aureus [9]. In addition, the microsomal CLint in series [6] and in series [7] was under 9.6 µL/min/mg each time.
For `C/C=C/COc1ccc(-c2nc(C)c(/C(C)=N/NC(=N)N)s2)cc1`, the MIC in the series with Staphylococcus aureus [10] amounted to 32 µg/mL (≈ 93.2 µM); against Staphylococcus aureus [11] it was 32 µg/mL (≈ 93.2 µM); in the series on Staphylococcus aureus [14], 32 µg/mL (≈ 93.2 µM); against Staphylococcus aureus [2] it was 16 µg/mL (≈ 46.6 µM); against Staphylococcus aureus [16], 32 µg/mL (≈ 93.2 µM); in the series with Staphylococcus aureus [17] it was 32 µg/mL (≈ 93.2 µM). Further, the MIC with Staphylococcus aureus [4] was 15.6 µg/mL (≈ 45.5 µM); in the series with Staphylococcus aureus [8], 16 µg/mL (≈ 46.6 µM). For the same compound, the MBC against Staphylococcus aureus [12] was 32 µg/mL (≈ 93.2 µM); against Staphylococcus aureus [13] it was 32 µg/mL (≈ 93.2 µM); against Staphylococcus aureus [15], 32 µg/mL (≈ 93.2 µM); in the series with Staphylococcus aureus [18] it was over 32 µg/mL; in the series on Staphylococcus aureus [5], 128 µg/mL (≈ 373 µM); with Staphylococcus aureus [19], over 32 µg/mL. In addition, in the series with Staphylococcus aureus [9], the MBC was over 64 µg/mL.
As for `C/C(=N\NC(=N)N)c1sc(-c2ccc(OC3CCCC3)cc2)nc1C`, the MIC in the series on Staphylococcus aureus [10] was found to be 8 µg/mL (≈ 22.4 µM); with Staphylococcus aureus [11] it was 8 µg/mL (≈ 22.4 µM); against Staphylococcus aureus [14], 8 µg/mL (≈ 22.4 µM); with Staphylococcus aureus [2], 2 µg/mL (≈ 5.59 µM); in the series on Staphylococcus aureus [16], 8 µg/mL (≈ 22.4 µM); in the series on Staphylococcus aureus [17], 8 µg/mL (≈ 22.4 µM). Further, the MIC against Staphylococcus aureus [4] stood at 15.6 µg/mL (≈ 43.7 µM); against Staphylococcus aureus [8], 2 µg/mL (≈ 5.59 µM). For the same compound, the MBC in the series with Staphylococcus aureus [12] came out at 8 µg/mL (≈ 22.4 µM); in the series on Staphylococcus aureus [13], 8 µg/mL (≈ 22.4 µM); in the series on Staphylococcus aureus [15], 8 µg/mL (≈ 22.4 µM); in the series with Staphylococcus aureus [18], 8 µg/mL (≈ 22.4 µM); against Staphylococcus aureus [5], 4 µg/mL (≈ 11.2 µM); in the series on Staphylococcus aureus [19] it was 32 µg/mL (≈ 89.5 µM). Moreover, in the series with Staphylococcus aureus [9], the MBC is 16 µg/mL (≈ 44.8 µM). Besides, the Activity result was “Non-Toxic” with HaCaT; “Dose-dependent effect” with Staphylococcus aureus [18]; “Dose-dependent effect” in the series on Staphylococcus aureus [5]; “Dose-dependent effect” in the series with Staphylococcus aureus [19]; “Dose-dependent effect” in the series on Staphylococcus aureus [9].
`C/C(=N\NC(=N)N)c1sc(-c2ccc(OCC(C)C)cc2)nc1C`: the MIC against Staphylococcus aureus [10] came to 16 µg/mL (≈ 46.3 µM); with Staphylococcus aureus [11], 16 µg/mL (≈ 46.3 µM); against Staphylococcus aureus [14], 16 µg/mL (≈ 46.3 µM); in the series on Staphylococcus aureus [2], 8 µg/mL (≈ 23.2 µM); in the series with Staphylococcus aureus [16], 16 µg/mL (≈ 46.3 µM); with Staphylococcus aureus [17], 32 µg/mL (≈ 92.6 µM). The MIC worked out at 15.6 µg/mL (≈ 45.2 µM) in the series on Staphylococcus aureus [4] and 8 µg/mL (≈ 23.2 µM) in the series with Staphylococcus aureus [8]. Further, the MBC is 32 µg/mL (≈ 92.6 µM) against Staphylococcus aureus [12]; 32 µg/mL (≈ 92.6 µM) with Staphylococcus aureus [13]; 32 µg/mL (≈ 92.6 µM) in the series on Staphylococcus aureus [15]; 32 µg/mL (≈ 92.6 µM) in the series on Staphylococcus aureus [18]; 16 µg/mL (≈ 46.3 µM) with Staphylococcus aureus [5]; over 32 µg/mL with Staphylococcus aureus [19]. The compound also had an MBC in the series with Staphylococcus aureus [9] of 8 µg/mL (≈ 23.2 µM).
As for `CCOc1ccc(-c2nc(C)c(/C(C)=N/NC(=N)N)s2)cc1`, the MIC in the series on Staphylococcus aureus [4] was over 30 µg/mL.
As for `CCC(CC)COc1ccc(-c2nc(C)c(/C(C)=N/NC(=N)N)s2)cc1`, the MIC against Staphylococcus aureus [2] came to 32 µg/mL (≈ 85.7 µM); against Staphylococcus aureus [4], 7.81 µg/mL (≈ 20.9 µM); with Staphylococcus aureus [8] it was 32 µg/mL (≈ 85.7 µM). For the same compound, the MBC in the series with Staphylococcus aureus [5] was 32 µg/mL (≈ 85.7 µM); in the series on Staphylococcus aureus [9], over 64 µg/mL.
As to `CN[C@H](CC(C)C)C(=O)N[C@H]1C(=O)N[C@@H](CC(N)=O)C(=O)N[C@H]2C(=O)N[C@H]3C(=O)N[C@H](C(=O)N[C@H](C(=O)O)c4cc(O)cc(O)c4-c4cc3ccc4O)[C@H](O)c3ccc(c(Cl)c3)Oc3cc2cc(c3O[C@@H]2O[C@H](CO)[C@@H](O)[C@H](O)[C@H]2O[C@H]2C[C@](C)(N)[C@H](O)[C@H](C)O2)Oc2ccc(cc2Cl)[C@H]1O` [VANCOMYCIN], the MBC in the series with Staphylococcus aureus [12] is 1 µg/mL (≈ 0.69 µM); in the series on Staphylococcus aureus [13] it was over 512 µg/mL; in the series on Staphylococcus aureus [15] it was over 512 µg/mL; against Staphylococcus aureus [18] it was 1 µg/mL (≈ 0.69 µM); against Staphylococcus aureus [5] it was under 1 µg/mL; against Staphylococcus aureus [19] it was 0.5 µg/mL (≈ 0.345 µM). Further, in the series with Staphylococcus aureus [9], the MBC worked out at 0.5 µg/mL (≈ 0.345 µM). Besides, the MIC was over 512 µg/mL with Staphylococcus aureus [14], under 1 µg/mL in the series with Staphylococcus aureus [2], over 512 µg/mL against Staphylococcus aureus [16] and 1.95 µg/mL (≈ 1.35 µM) in the series with Staphylococcus aureus [4]. Moreover, the result with Staphylococcus aureus [20] was Active. Further, in the series with Staphylococcus aureus [21], the result was inactive.
Regarding `C/C(=N\NC(=N)N)c1sc(-c2ccc(OCCC(C)C)cc2)nc1C`, the MIC in the series with Staphylococcus aureus [10] was found to be 16 µg/mL (≈ 44.5 µM); with Staphylococcus aureus [11], 16 µg/mL (≈ 44.5 µM); with Staphylococcus aureus [14] it was 16 µg/mL (≈ 44.5 µM); against Staphylococcus aureus [2], 8 µg/mL (≈ 22.3 µM); in the series on Staphylococcus aureus [16], 16 µg/mL (≈ 44.5 µM); in the series on Staphylococcus aureus [17], 16 µg/mL (≈ 44.5 µM). For the same compound, the MIC is 7.81 µg/mL (≈ 21.7 µM) in the series with Staphylococcus aureus [4] and 8 µg/mL (≈ 22.3 µM) against Staphylococcus aureus [8]. The MBC in the series on Staphylococcus aureus [12] is 16 µg/mL (≈ 44.5 µM); in the series on Staphylococcus aureus [13], 32 µg/mL (≈ 89 µM); in the series on Staphylococcus aureus [15], 32 µg/mL (≈ 89 µM); in the series with Staphylococcus aureus [18], 32 µg/mL (≈ 89 µM); with Staphylococcus aureus [5] it was 8 µg/mL (≈ 22.3 µM); against Staphylococcus aureus [19], over 32 µg/mL. This compound returned an MBC against Staphylococcus aureus [9] of 16 µg/mL (≈ 44.5 µM).

The values are drawn from ChEMBL document CHEMBL4002577, “Phenylthiazole antibiotics: A metabolism-guided approach to overcome short duration of action” (Eur J Med Chem, 2017).
